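Following 48 hours of exposure in 96-well plates, responses at five concentrations were used to interpolate endpoints linearly. GI50 marks 50% less growth. At the TGI there is no net growth.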
Tests used:
Experiment in all cases: DTP human tumour cell line panel, 48 h
DLD-1 colon = tested on: DLD-1 colon
DMS 273 small cell lung = tested on: DMS 273 small cell lung
M19-MEL melanoma = tested on: M19-MEL melanoma
NCI/ADR-RES ovarian = tested on: NCI/ADR-RES ovarian
OVCAR-3 ovarian = tested on: OVCAR-3 ovarian
RPMI-8226 leukemia = tested on: RPMI-8226 leukemia
SF-295 CNS = tested on: SF-295 CNS
LXFL 529 NSCLC = tested on: LXFL 529 NSCLC
PC-3 prostate = tested on: PC-3 prostate
T-47D breast = tested on: T-47D breast

Compound: O=C(CCN1CCCCC1)C(=Cc1ccccc1)C(=O)CCN1CCCCC1
- TGI (DLD-1 colon): 44.5 µM
- GI50 (DMS 273 small cell lung): 7.61 µM
- TGI (DMS 273 small cell lung): > 100 µM
- TGI (M19-MEL melanoma): > 100 µM
- TGI (NCI/ADR-RES ovarian): > 100 µM
- GI50 (OVCAR-3 ovarian): > 100 µM
- TGI (OVCAR-3 ovarian): > 100 µM
- GI50 (RPMI-8226 leukemia): 4.49 µM
- TGI (RPMI-8226 leukemia): 57.9 µM
- TGI (SF-295 CNS): > 100 µM

Compound: C=C(C)C(=O)OC1C/C(CO)=C\C(O)C/C(C)=C/C2OC(=O)C(=C)C21 (configuration not stated)
- TGI (DMS 273 small cell lung): > 100 µM
- TGI (LXFL 529 NSCLC): 32.2 µM
- TGI (M19-MEL melanoma): 92.7 µM
- TGI (OVCAR-3 ovarian): 59.4 µM
- TGI (RPMI-8226 leukemia): 45.6 µM
- TGI (SF-295 CNS): > 100 µM

Compound: CCCCC#C[I+]c1ccccc1
- TGI (DLD-1 colon): 38.2 µM
- TGI (DMS 273 small cell lung): 40.9 µM
- TGI (LXFL 529 NSCLC): 24.6 µM
- TGI (M19-MEL melanoma): 30.1 µM
- TGI (OVCAR-3 ovarian): 30.7 µM
- TGI (SF-295 CNS): 43.5 µM

Compound: CCC(C(=O)O)c1ccc(OC)cc1 (configuration not stated)
- TGI (DLD-1 colon): > 100 µM
- TGI (DMS 273 small cell lung): > 100 µM
- TGI (LXFL 529 NSCLC): > 100 µM
- TGI (M19-MEL melanoma): > 100 µM
- TGI (OVCAR-3 ovarian): > 100 µM
- TGI (RPMI-8226 leukemia): > 100 µM
- TGI (SF-295 CNS): > 100 µM

Compound: CCCN(C(=O)c1ccccc1)C(C#N)c1ccc(C(C#N)N(CCC)C(=O)c2ccccc2)cc1 (configuration not stated)
- TGI (NCI/ADR-RES ovarian): > 100 µM
- TGI (OVCAR-3 ovarian): > 100 µM
- TGI (PC-3 prostate): > 100 µM
- TGI (RPMI-8226 leukemia): > 100 µM
- TGI (SF-295 CNS): > 100 µM
- TGI (T-47D breast): 85.7 µM

Compound: Cc1nc2n(c1/C=C1/C(=O)Nc3cccc(Cl)c31)CCS2
- TGI (NCI/ADR-RES ovarian): > 100 µM
- TGI (OVCAR-3 ovarian): > 100 µM
- TGI (PC-3 prostate): > 100 µM
- TGI (RPMI-8226 leukemia): > 100 µM
- TGI (SF-295 CNS): > 100 µM
- TGI (T-47D breast): 54.9 µM

Compound: Nc1nc(Cl)cc(NCC2(CO)CC(=O)C2)n1
- TGI (NCI/ADR-RES ovarian): > 100 µM
- TGI (OVCAR-3 ovarian): > 100 µM
- TGI (PC-3 prostate): > 100 µM
- TGI (RPMI-8226 leukemia): > 100 µM
- TGI (SF-295 CNS): > 100 µM
- TGI (T-47D breast): > 100 µM

Compound: Cc1c(O)c(O)cc[n+]1C1OC(CO)C(O)C1O (configuration not stated)
- TGI (DLD-1 colon): > 100 µM
- TGI (DMS 273 small cell lung): > 100 µM
- TGI (LXFL 529 NSCLC): > 100 µM
- TGI (M19-MEL melanoma): > 100 µM
- TGI (RPMI-8226 leukemia): > 100 µM

Compound: COC(=O)c1c(C)cccc1C1CN=NC12Cc1ccc(C)cc1C2=O (configuration not stated)
- TGI (NCI/ADR-RES ovarian): > 100 µM
- TGI (OVCAR-3 ovarian): > 100 µM
- TGI (PC-3 prostate): > 100 µM
- TGI (RPMI-8226 leukemia): > 100 µM
- TGI (SF-295 CNS): > 100 µM
- TGI (T-47D breast): 49.8 µM

Compound: O=C1CCCc2cc3c(cc21)CC1(Cc2ccccc2C1)C3
- TGI (NCI/ADR-RES ovarian): > 100 µM
- TGI (OVCAR-3 ovarian): 6.1 µM
- TGI (PC-3 prostate): > 100 µM
- TGI (RPMI-8226 leukemia): 25.7 µM
- TGI (SF-295 CNS): 21.5 µM
- TGI (T-47D breast): 96.9 µM

Compound: c1csc(-c2ccc(-c3cccc4nsnc34)s2)c1
- TGI (NCI/ADR-RES ovarian): > 100 µM
- TGI (OVCAR-3 ovarian): > 100 µM
- TGI (PC-3 prostate): > 100 µM
- TGI (RPMI-8226 leukemia): > 100 µM
- TGI (SF-295 CNS): > 100 µM
- TGI (T-47D breast): > 100 µM

Compound: O=C(NC(=O)c1ccccc1[N+](=O)[O-])Nc1ccc(Oc2ncc(Br)cn2)c(Cl)c1
- GI50 (DLD-1 colon): < 0.0201 µM
- TGI (DMS 273 small cell lung): 0.0212 µM
- GI50 (LXFL 529 NSCLC): < 0.0224 µM
- GI50 (M19-MEL melanoma): < 0.0229 µM
- TGI (NCI/ADR-RES ovarian): 0.0589 µM
- GI50 (OVCAR-3 ovarian): < 0.0158 µM
- TGI (OVCAR-3 ovarian): 0.0767 µM
- GI50 (RPMI-8226 leukemia): < 0.02 µM
- GI50 (SF-295 CNS): < 0.0184 µM
- TGI (SF-295 CNS): 0.0465 µM

Compound: C=C1C(=O)O[C@@H]2C(=O)[C@@H](C)CCC/C(C)=C/CC[C@@]3(C)O[C@@H]3C[C@@H]12
- TGI (NCI/ADR-RES ovarian): > 100 µM
- TGI (OVCAR-3 ovarian): > 100 µM
- TGI (PC-3 prostate): > 100 µM
- TGI (RPMI-8226 leukemia): 54.1 µM
- TGI (SF-295 CNS): > 100 µM
- TGI (T-47D breast): > 100 µM

Compound: CC(C)CCS(=O)(=O)OCCCCOS(=O)(=O)CCC(C)C
- TGI (DLD-1 colon): > 100 µM
- TGI (DMS 273 small cell lung): > 100 µM
- TGI (LXFL 529 NSCLC): > 100 µM
- TGI (M19-MEL melanoma): > 100 µM
- TGI (OVCAR-3 ovarian): 29.9 µM
- TGI (RPMI-8226 leukemia): > 100 µM
- TGI (SF-295 CNS): > 100 µM

Compound: c1ccc(-c2nc(-c3ccccc3SSc3ccccc3-c3nc(-c4ccccc4)nn3-c3ccccc3)n(-c3ccccc3)n2)cc1
- TGI (NCI/ADR-RES ovarian): > 100 µM
- TGI (OVCAR-3 ovarian): > 100 µM
- TGI (PC-3 prostate): > 100 µM
- TGI (RPMI-8226 leukemia): > 100 µM
- TGI (SF-295 CNS): > 100 µM
- TGI (T-47D breast): > 100 µM

Compound: O=C1/C(=C/c2ccccc2)N=C2Sc3c(nc[nH]c3=O)N12
- TGI (NCI/ADR-RES ovarian): > 100 µM
- TGI (OVCAR-3 ovarian): > 100 µM
- TGI (PC-3 prostate): > 100 µM
- TGI (RPMI-8226 leukemia): > 100 µM
- TGI (SF-295 CNS): > 100 µM
- TGI (T-47D breast): > 100 µM

Compound: [N-]=[N+]=NC[C@H]1OCO[C@H](CN=[N+]=[N-])[C@@H](OCCOCCCl)[C@@H]1OCCOCCCl
- TGI (NCI/ADR-RES ovarian): > 100 µM
- TGI (OVCAR-3 ovarian): > 100 µM
- TGI (PC-3 prostate): > 100 µM
- TGI (RPMI-8226 leukemia): > 100 µM
- TGI (SF-295 CNS): > 100 µM
- TGI (T-47D breast): > 100 µM

Compound: NC(=O)NCCCC(NC(=O)OCCCCn1ccc(=O)[nH]c1=O)C(=O)O (configuration not stated)
- TGI (NCI/ADR-RES ovarian): > 100 µM
- TGI (OVCAR-3 ovarian): > 100 µM
- TGI (PC-3 prostate): > 100 µM
- TGI (RPMI-8226 leukemia): > 100 µM
- TGI (SF-295 CNS): > 100 µM
- TGI (T-47D breast): > 100 µM

Reference: PubChem BioAssay (NCI)
